Source: ChEMBL document CHEMBL3769398 (J Med Chem, 2016)

Experiments:
Histone deacetylase 8 [1] = target: T1, Histone deacetylase 8 (Homo sapiens, UniProt Q9BY41); assay: Inhibition of recombinant human KDAC8 using FAM-labelled substrate B incubated for 60 mins by microfluidic chip-based assay
T1 sequence (Q9BY41 whole entry): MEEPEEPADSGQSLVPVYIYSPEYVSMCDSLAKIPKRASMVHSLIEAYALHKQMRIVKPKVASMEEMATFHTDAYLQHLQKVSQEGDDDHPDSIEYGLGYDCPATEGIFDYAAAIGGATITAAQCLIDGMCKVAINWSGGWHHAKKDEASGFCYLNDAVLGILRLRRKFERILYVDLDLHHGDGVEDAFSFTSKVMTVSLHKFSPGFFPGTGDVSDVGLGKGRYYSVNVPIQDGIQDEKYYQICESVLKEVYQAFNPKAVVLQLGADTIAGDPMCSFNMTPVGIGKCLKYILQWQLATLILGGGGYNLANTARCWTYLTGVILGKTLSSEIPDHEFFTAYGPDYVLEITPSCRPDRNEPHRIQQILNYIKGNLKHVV

Histone deacetylase 1 [2] = target: T2, Histone deacetylase 1 (Homo sapiens, UniProt Q13547); assay: Inhibition of recombinant human KDAC1 using FAM-labelled substrate A incubated for 60 mins by microfluidic chip-based assay
Histone deacetylase 3 [3] = target: T3, Histone deacetylase 3 (Homo sapiens, UniProt O15379); assay: Inhibition of recombinant human KDAC3 using FITC-p53 acetylated peptide substrate incubated for 60 mins by microfluidic chip-based assay
[4] = target: T4, Protein deacetylase HDAC6 (Homo sapiens, UniProt Q9UBN7); assay: Inhibition of human KDAC6 by fluorescence assay
T4 sequence (Q9UBN7 whole entry): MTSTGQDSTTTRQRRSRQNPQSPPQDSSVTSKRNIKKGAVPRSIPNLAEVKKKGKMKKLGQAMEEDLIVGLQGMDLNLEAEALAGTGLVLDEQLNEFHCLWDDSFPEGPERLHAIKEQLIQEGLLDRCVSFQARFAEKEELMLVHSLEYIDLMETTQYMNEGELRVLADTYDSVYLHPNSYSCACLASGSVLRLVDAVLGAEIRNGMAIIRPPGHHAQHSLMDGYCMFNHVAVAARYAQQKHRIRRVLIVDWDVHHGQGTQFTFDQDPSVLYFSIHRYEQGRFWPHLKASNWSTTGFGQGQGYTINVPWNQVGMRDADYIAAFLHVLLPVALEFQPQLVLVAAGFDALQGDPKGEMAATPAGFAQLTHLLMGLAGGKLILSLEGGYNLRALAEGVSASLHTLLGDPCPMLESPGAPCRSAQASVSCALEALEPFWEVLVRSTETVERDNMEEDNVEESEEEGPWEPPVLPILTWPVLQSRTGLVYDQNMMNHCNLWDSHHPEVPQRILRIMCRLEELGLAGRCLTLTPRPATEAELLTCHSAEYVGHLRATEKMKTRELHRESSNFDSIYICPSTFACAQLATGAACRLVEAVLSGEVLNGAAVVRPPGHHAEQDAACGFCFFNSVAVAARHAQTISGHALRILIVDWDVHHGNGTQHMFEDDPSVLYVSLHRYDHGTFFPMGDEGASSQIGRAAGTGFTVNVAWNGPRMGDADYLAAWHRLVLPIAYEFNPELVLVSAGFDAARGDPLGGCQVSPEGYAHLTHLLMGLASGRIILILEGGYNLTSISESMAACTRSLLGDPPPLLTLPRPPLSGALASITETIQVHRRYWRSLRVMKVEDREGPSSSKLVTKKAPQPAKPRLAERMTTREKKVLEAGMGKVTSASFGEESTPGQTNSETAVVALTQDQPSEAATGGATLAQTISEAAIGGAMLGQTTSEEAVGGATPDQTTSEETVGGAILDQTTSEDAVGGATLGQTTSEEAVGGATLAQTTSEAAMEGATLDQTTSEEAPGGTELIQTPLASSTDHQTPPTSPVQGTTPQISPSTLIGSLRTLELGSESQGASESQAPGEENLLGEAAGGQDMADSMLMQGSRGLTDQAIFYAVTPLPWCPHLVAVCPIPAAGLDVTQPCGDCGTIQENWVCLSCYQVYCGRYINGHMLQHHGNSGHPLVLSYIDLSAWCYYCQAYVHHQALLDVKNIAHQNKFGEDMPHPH

Histone deacetylase 8 [5] = target: T1, Histone deacetylase 8; assay: Inhibition of human KDAC8 by fluorescence assay
Histone deacetylase 8 [6] = target: T1, Histone deacetylase 8; assay: Inhibition of full length human recombinant KDAC8 using fluorophore-conjugated substrate measured as fluorigenic release of 7-amino-4-methylcoumarin by microtiter plate reader analysis
Histone deacetylase 8 [7] = target: T1, Histone deacetylase 8; assay: Inhibition of human KDAC8
[8] = target: T4, Protein deacetylase HDAC6; assay: Inhibition of human KDAC6
Histone deacetylase 3 [9] = target: T3, Histone deacetylase 3; assay: Inhibition of human KDAC3
Histone deacetylase 1 [10] = target: T2, Histone deacetylase 1; assay: Inhibition of human KDAC1

T3 sequence (O15379 whole entry): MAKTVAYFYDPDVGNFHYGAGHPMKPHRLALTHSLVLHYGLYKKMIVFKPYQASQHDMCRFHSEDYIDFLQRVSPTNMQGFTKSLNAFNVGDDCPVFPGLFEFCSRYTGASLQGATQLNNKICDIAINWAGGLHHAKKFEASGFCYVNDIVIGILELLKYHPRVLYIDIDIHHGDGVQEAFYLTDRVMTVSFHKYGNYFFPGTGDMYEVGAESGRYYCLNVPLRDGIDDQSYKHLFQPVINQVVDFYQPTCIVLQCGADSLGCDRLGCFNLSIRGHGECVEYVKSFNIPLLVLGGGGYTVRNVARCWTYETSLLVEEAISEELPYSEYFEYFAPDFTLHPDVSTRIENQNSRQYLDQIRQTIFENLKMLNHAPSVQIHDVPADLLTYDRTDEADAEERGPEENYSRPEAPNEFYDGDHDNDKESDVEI
T2 sequence (Q13547 whole entry): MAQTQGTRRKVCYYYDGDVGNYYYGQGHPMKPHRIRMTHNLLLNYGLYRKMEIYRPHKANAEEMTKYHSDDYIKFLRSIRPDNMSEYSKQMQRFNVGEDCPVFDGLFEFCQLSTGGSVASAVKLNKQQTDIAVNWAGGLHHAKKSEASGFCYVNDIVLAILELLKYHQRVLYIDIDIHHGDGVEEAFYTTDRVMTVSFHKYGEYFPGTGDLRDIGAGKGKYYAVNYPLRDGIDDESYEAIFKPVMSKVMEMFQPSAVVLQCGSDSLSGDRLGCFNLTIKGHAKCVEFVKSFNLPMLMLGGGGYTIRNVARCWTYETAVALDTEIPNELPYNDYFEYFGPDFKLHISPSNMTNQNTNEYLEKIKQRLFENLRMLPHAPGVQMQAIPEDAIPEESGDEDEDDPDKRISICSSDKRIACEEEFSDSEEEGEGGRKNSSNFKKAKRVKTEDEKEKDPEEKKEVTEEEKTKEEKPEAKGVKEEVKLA

`CC(C)[C@@H]1NC(=O)[C@@H]2CCCN2C(=O)[C@H]2CCCN2C(=O)C[C@@H](C(=O)NCCCC(=O)NO)NC1=O` was tested, and the IC50 (Histone deacetylase 8 [1]) was over 30 µM, the IC50 (Histone deacetylase 1 [2]) was 25.1 µM and the IC50 (Histone deacetylase 3 [3]) was 13.7 µM.
With `Nc1ccccc1NC(=O)c1ccc(-c2cn(CCc3ccsc3)nn2)cc1` the IC50 [4] was over 30 µM and the IC50 (Histone deacetylase 8 [5]) was over 30 µM.
`CCCCCCCC(=O)SCC/C=C/[C@@H]1CC(=O)NCc2nc(cs2)C2=N[C@@](C)(CS2)C(=O)N[C@@H](C(C)C)C(=O)O1` [LARGAZOLE] gave an IC50 (Histone deacetylase 8 [6]) of over 30 µM.
For `CC(=O)SCC/C=C/[C@@H]1CC(=O)NCc2ccc(cc2)C2=N[C@@](C)(CS2)C(=O)N[C@@H](C(C)C)C(=O)O1`, the IC50 (Histone deacetylase 8 [7]) was over 30 µM, the IC50 [8] was 1.61 µM and the IC50 (Histone deacetylase 3 [9]) was 0.47 µM. It also gave an IC50 (Histone deacetylase 1 [10]) of 3.48 µM.
`CC(C)[C@@H]1NC(=O)[C@H]2CCCN2C(=O)[C@@H]2CCCN2C(=O)C[C@H](C(=O)NCCCC(=O)NO)NC1=O` showed an IC50 (Histone deacetylase 8 [1]) of over 30 µM, an IC50 (Histone deacetylase 1 [2]) of over 30 µM and an IC50 (Histone deacetylase 3 [3]) of over 30 µM.
